Results published in patent US9409906B2, “Pyrimido[4,5-B]indole derivatives and use thereof in the expansion of hematopoietic stem cells” (UNIVERSITÉ DE MONTRÉAL, priority 2012, dated 2016).
One block for each compound: values may come before it.

What was measured:
CD34+CD45RA− cells = assay: Dose-response assay: 50% increase in CD34+CD45RA− cell count vs vehicle (EC50); type: cell-based, human; details: concentration giving 50% increase in CD34+CD45RA− cell count vs vehicle (DMSO), dose-response 1 nM to 5000 nM; for EC50: Homo sapiens, read-out: Biological data (EC50)*
Procedure: The following biological assays were used to assess the effect of the compounds of the invention on hematopoietic stem cell expansion. Culture medium: The culture medium used consisted of serum-free medium supplemented with the following recombinant cytokines: interleukin-6, thrombopoietin, Flt-3 ligand, and stem cell factor, each at a final concentration of 100 ng/ml, in the presence of vehicle (DMSO), positive control (SR1), or compound of the invention or a combination of compounds.

[1] = tested on: Mobilized peripheral blood CD34(+) cells; assay: Growth factor (Flt3, SCF, TPO) requirement / mitogen test (FIG. 3); type: cell-based, human
Procedure: FIG. 3: Flt3, SCF, and TPO are required for compound 1 mediated stem cell expansion. Mobilized peripheral blood CD34(+) cells were cultured for 7 days in the presence or absence of the growth factors (Flt3+SCF+TPO).
This indicate that akin to SR1, Compound 1's effect on maintenance of primitive HSC phenotype ex vivo is not due to a mitogenic effect on this population but rather on the prevention of cell differentiation.

[2] = tested on: CD34+ mobilized peripheral blood cells; assay: FACS analysis of differentiation of CD34+ mobilized peripheral blood cells (FIG. 4A); type: cell-based, human; details: 7 day expansion, optimal levels, vs DMSO control
From the text: FIG. 4A illustrates the impact of Compound 1 on mobilized peripheral blood cell differentiation. Following a 7 day expansion, a relatively pure (>85% CD34^+) population of mobilized peripheral blood was exposed to control the (DMSO) or Compound 1 or SR1 or Compound 1+SR1.

[3] = tested on: CD34+ mobilized peripheral blood (mPB) cells; assay: Ex vivo expansion of mobilized peripheral blood-derived CD34+ and CD34+CD45RA− cells (FIG. 5A); type: cell-based, human; details: 12-days culture
From the text: FIG. 5: A) Compound 1 expands mobilized peripheral blood-derived CD34+ and CD34+CD45RA− cell populations ex vivo. […] This observation was enhanced with the co-treatment with SR1.
[…]. The level of expansion is the same whether cultures are initiated with Compound 1, SR1, Compound 1+SR1, or control DMSO. […] […].

[4] = tested on: CD34+CD45RA− cord blood cells; assay: Ex vivo expansion of cord blood-derived CD34+ and CD34+CD45RA− cells (FIG. 5B, 5C); type: cell-based, human; details: cord blood
[5] = tested on: CD34+ mPB cells transplanted in NSG mice; assay: Engraftment of cultured CD34+ mPB cells in NSG mice; details: cells cultured ten days; outcome of 50,000 and 500,000 cells; 13 week post-transplantation
[6] = tested on: CD34+ CB cells transplanted in NSG mice; assay: Engraftment of cultured CD34+ cord blood cells in NSG mice (FIG. 7); details: outcome of 5,000 CD34+ CB cells, 7 days culture; 8-weeks post transplantation (FIG. 7A)
From the text: These experiments were done in short term cultures i.e. 7 days.

EC50 (CD34+CD45RA− cells): < 100 nM
SMILES: COC(=O)c1ccc2c(c1)[nH]c1nc(Cc3cccc(C(O)C(F)(F)F)c3)nc(NCCCN3CCCCC3)c12 (stereo not shown) [Compound 34, methyl 4-((3-(piperidin-1-yl)propyl)amino)-2-(3-(2,2,2-trifluoro-1-hydroxyethyl)benzyl)-9H-pyrimido[4,5-b]indole-7-carboxylate]

EC50 (CD34+CD45RA− cells): < 100 nM
SMILES: COC(=O)c1ccc2c(c1)[nH]c1nc(Cc3ccccc3)nc(NCCCN(C)CCCNc3nc(Cc4ccccc4)nc4[nH]c5cc(C(=O)OC)ccc5c34)c12 [Compound 51, dimethyl 4,4′-(((methylazanediyl)bis(propane-3,1-diyl))bis(azanediyl))bis(2-benzyl-9H-pyrimido[4,5-b]indole-7-carboxylate)]

SMILES: COC(=O)c1ccc2c(c1)[nH]c1nc(Cc3cccc(C4(C(F)(F)F)N=N4)c3)nc(NCCCN(C)CCCNC(=O)CCCC[C@@H]3SC[C@@H]4NC(=O)N[C@@H]43)c12 [Compound 53, methyl 4-((3-(methyl(3-(5-((3aS,4S,6aR)-2-oxohexahydro-1H-thieno[3,4-d]imidazol-4-yl)pentanamido)propyl)amino)propyl)amino)-2-(3-(3-(trifluoromethyl)-3H-diazirin-3-yl)benzyl)-9H-pyrimido[4,5-b]indole-7-carboxylate]
Biological data (EC50)* (CD34+CD45RA− cells): F (F=compound showed >1.3 fold expansion)

SMILES: CC(C)n1cnc2c(NCCc3ccc(O)cc3)nc(-c3csc4ccccc34)nc21 [SR1, StemRegenin1, reference compound]
induction of cell proliferation in the absence of growth factors (Flt3, TPO, SCF) [1]: not able to induce cell proliferation | loss of CD34 cell surface expression [2]: partly abrogated | total cell count increase above the input [3]: about 20 fold | expansion of CD34+CD45RA− cells ([4]; 12-days): less than 20 fold | total cell expansion vs DMSO (control) ([4]; twelve days): the same | human hematopoietic engraftment (human CD45+ cells in BM) [5]: consistently better than DMSO | human CD45+ engraftment / reconstitution activity [6]: human CD45+ engraftment
